Data: US20130267476A1, “Pesticidal Active Mixtures Comprising Pyrazole Compounds” (BASF SE, priority 2010, published 2013)
“And” between values parts separate entries of the source, which are not always exact repeats. Equal values may be shown once. Read-outs that look alike come from different tables or passages of the source.

Experiments:
[1] = tested on: green peach aphid (Myzus persicae); experiment: Test 2—Control of Green Peach Aphid (artificial diet under membrane, systemic); type: in vivo; conditions: 3 days
Description: Test 2—Control of Green Peach Aphid
For evaluating control of green peach aphid (Myzus persicae) through systemic means the test unit consisted of 96-well-microtiter plates containing liquid artificial diet under an artificial membrane.
The compounds or mixtures were formulated using a solution containing 75% water and 25% DMSO. Different concentrations of formulated compounds or mixtures were pipetted into the aphid diet, using a custom built pipetter, at two replications.
(§1) For experimental mixtures in these tests identical volumes of both mixing partners at the desired concentrations respectively, were mixed together.
After application, 5-8 adult aphids were placed on the artificial membrane inside the microtiter plate wells. The aphids were then allowed to suck on the treated aphid diet and incubated at 23±1° C., 50±5% RH for 3 days. Aphid mortality and fecundity was then visually assessed.

[2] = tested on: vetch aphid (Megoura viciae); experiment: Test 1—Control of Vetch Aphid (leaf disks, 24-well microtiter plates); type: in vivo; conditions: 5 days
Procedure: Test 1—Control of Vetch Aphid
For evaluating control of vetch aphid (Megoura viciae) through contact or systemic means the test unit consisted of 24-well-microtiter plates containing broad bean leaf disks.
The compounds or mixtures were formulated using a solution containing 75% water and 25% Dimethylsulfoxide (DMSO). Different concentrations of formulated compounds or mixtures were sprayed onto the leaf disks at 2.5 μl, using a custom built micro atomizer, at two replications.
as §1
After application, the leaf disks were air-dried and 5-8 adult aphids placed on the leaf disks inside the microtiter plate wells. The aphids were then allowed to suck on the treated leaf disks and incubated at 23±1° C., 50±5% relative humidity (RH) for 5 days. Aphid mortality and fecundity was then visually assessed.

[3] = tested on: boll weevil (Anthonomus grandis); experiment: Test 3—Control of Boll Weevil (insect diet with eggs); type: in vivo; conditions: 5 days
Procedure: Test 3—Control of Boll Weevil
For evaluating control of boll weevil (Anthonomus grandis) the test unit consisted of 24-well-microtiter plates containing an insect diet and 20-30 A. grandis eggs.
The compounds or mixtures were formulated using a solution containing 75% water and 25% DMSO. Different concentrations of formulated compounds or mixtures were sprayed onto the insect diet at 20 μl, using a custom built micro atomizer, at two replications.
as §1
After application, microtiter plates were incubated at 23±1° C., 50±5% RH for 5 days. Egg and larval mortality was then visually assessed.

[4] = tested on: Mediterranean fruitfly (Ceratitis capitata); experiment: Test 4—Control of Mediterranean Fruitfly (insect diet with eggs); type: in vivo; conditions: 5 days
Procedure: Test 4—Control of Mediterranean Fruitfly
For evaluating control of Mediterranean fruitfly (Ceratitis capitata) the test unit consisted of 96-well-microtiter plates containing an insect diet and 50-80 C. capitata eggs.
The compounds or mixtures were formulated using a solution containing 75% water and 25% DMSO. Different concentrations of formulated compounds or mixtures were sprayed onto the insect diet at 5 μl, using a custom built micro atomizer, at two replications.
as §1
(§2) After application, microtiter plates were incubated at 28±1° C., 80±5% RH for 5 days. Egg and larval mortality was then visually assessed.

[5] = tested on: Pyricularia oryzae; type: cell-based; conditions: 7 days after inoculation
[6] = tested on: Alternaria solani; experiment: Test 8—Activity Against Early Blight on Tomatoes Caused by Alternaria solani (microtest); type: cell-based; conditions: 7 days after inoculation
Description: (§3) The active compounds were formulated separately as a stock solution having a concentration of 10000 ppm in dimethyl sulfoxide.
(§4) The measured parameters were compared to the growth of the active compound-free control variant (100%) and the fungus-free and active compound-free blank value to determine the relative growth in % of the pathogens in the respective active compounds. These percentages were converted into efficacies.
Test 8—Activity Against Early Blight on Tomatoes Caused by Alternaria solani
(§5) The stock solutions were mixed according to the ratio, pipetted onto a micro titer plate (MTP) and diluted with water to the stated concentrations. A spore suspension of Alternaria solani in an aqueous biomalt solution was then added. The plates were placed in a water vapor-saturated chamber at a temperature of 18° C. Using an absorption photometer, the MTPs were measured at 405 nm 7 days after the inoculation.

[7] = tested on: Botrytis cinerea; experiment: Test 6—Activity Against the Grey Mold Botrytis cinerea in the Microtiterplate Test; type: cell-based; conditions: 7 days after inoculation
Description: as §3, §4
Test 6—Activity Against the Grey Mold Botrytis cinerea in the Microtiterplate Test
as §5, with “Botrci cinerea” for “Alternaria solani”

[8] = tested on: Septoria tritici; experiment: Test 9—Activity Against Leaf Blotch on Wheat Caused by Septoria tritici (microtest); type: cell-based; conditions: 7 days after inoculation
Description: as §3, §4
Test 9—Activity Against Leaf Blotch on Wheat Caused by Septoria tritici
as §5, with “SepCoria triticiin” for “Alternaria solani in”

[9] = tested on: tobacco budworm (Heliothis virescens); experiment: Test 5—Control of Tobacco Budworm (insect diet with eggs); type: in vivo; conditions: 5 days
Procedure: Test 5—Control of Tobacco Budworm
For evaluating control of tobacco budworm (Heliothis virescens) the test unit consisted of 96-well-microtiter plates containing an insect diet and 15-25 H. virescens eggs.
The compounds or mixtures were formulated using a solution containing 75% water and 25% DMSO. Different concentrations of formulated compounds or mixtures were sprayed onto the insect diet at 10 μl, using a custom built micro atomizer, at two replications.
as §1, §2

[10] = 0 + 10 ppm (second compound alone)
[11] = 0 + 0.4 ppm (second compound alone)
[12] = 0 + 2 ppm (second compound alone)
[13] = 0 + 20 ppm (second compound alone)
[14] = 2 + 0 ppm (first compound alone)
[15] = 10 + 0 ppm (first compound alone)
[16] = 50 + 0 ppm (first compound alone)
[17] = 0 + 0.08 ppm (second compound alone)

Compound: C[C@]1(COC(=O)CC2CC2)[C@@H]2C[C@H](OC(=O)CC3CC3)[C@@]3(C)Oc4cc(-c5cccnc5)oc(=O)c4[C@H](O)[C@@H]3[C@@]2(C)CC[C@@H]1OC(=O)CC1CC1 [A27.2]
- Average Control % ([1]; 0 + 0.0008 ppm (second compound alone)): 0%
- Average Control % ([1]; 0 + 0.004 ppm (second compound alone)): 50%

Compound: CNC(=O)c1cc(Cl)cc(C)c1NC(=O)c1cc(Br)nn1-c1ncccc1Cl [Chloranthraniliprole, chloranthraniliprole]
- Average Control % [2, 10]: 25%
- Average Control % [1, 11]: 0%
- Average Control % [3, 11]: 25%
- Average Control % [4, 10]: 0%

Compound: N#Cc1nn(-c2c(Cl)cc(C(F)(F)F)cc2Cl)c(N)c1[S+]([O-])C(F)(F)F (stereo not shown) [Fipronil, fipronil]
- Average Control % [2, 12]: 0%
- Average Control % [1, 12]: 0%

Compound: N#CCNC(=O)c1cnccc1C(F)(F)F [Flonicamid, flonicamid]
- Average Control % [2, 13]: 25%
- Average Control % ([1]; 0 + 4 ppm (second compound alone)): 0%
- Average Control % [3, 13]: 0%

Compound: CN(C(=O)c1cnn(C)c1C(F)F)c1cccnc1 [I-17]
- Average Control % [2, 14]: 0%
- Observed efficacy % ([5]; 63 ppm): 0%
- Observed efficacy % ([6]; 63 ppm): 4%

Compound: Cc1c(C(=O)N(C)c2ccnnc2)cnn1C(C)C [I-52]
- Average Control % [2, 15]: 50% and 25%
- Average Control % ([1]; 0.08 + 0 ppm (first compound alone)): 0%
- Average Control % [1, 14]: 25% and 50%
- Average Control % [3, 14]: 0%
- Average Control % [3, 15]: 0%
- Average Control % [3, 16]: 0%
- Average Control % [4, 16]: 0%
- Observed efficacy % ([7]; 63 ppm): 4%
- Observed efficacy % ([5]; 63 ppm): 0%
- Observed efficacy % ([6]; 63 ppm): 0%
- Observed efficacy % ([8]; 4 ppm): 18%
- Observed efficacy % ([8]; 16 ppm): 18%

Compound: Cc1c(C(=O)N(C)c2ccnnc2)cnn1CC(F)(F)F [I-76]
- Average Control % [2, 14]: 0%
- Average Control % [2, 15]: 0%
- Average Control % [2, 16]: 0%
- Average Control % ([1]; 0.4 + 0 ppm (first compound alone)): 0%
- Average Control % [1, 14]: 0%
- Average Control % [1, 16]: 50%
- Average Control % [4, 15]: 0%
- Average Control % [9, 16]: 0%
- Observed efficacy % ([8]; 1 ppm): 11%

Compound: O=[N+]([O-])NC1=NCCN1Cc1ccc(Cl)nc1 [Imidacloprid, imidacloprid]
- Average Control % ([2]; 0 + 0.016 ppm (second compound alone)): 0%
- Average Control % [2, 17]: 0%
- Average Control % [2, 11]: 25%
- Average Control % [4, 10]: 0%

Compound: OC(Cc1ccccc1Cl)(Cn1nc[nH]c1=S)C1(Cl)CC1 (stereo not shown) [Prothioconazole, 2-[2-(1-chlorocyclopropyl)-3-(2-chlorophenyl)-2-hydroxypropyl]-2,4-dihydro[1,2,4]triazole-3-thione]
- Observed efficacy % ([7]; 0.25 ppm): 45%
- Observed efficacy % ([5]; 0.25 ppm): 15%
- Observed efficacy % ([6]; 0.25 ppm): 22%

Compound: CC1=NNC(=O)N(/N=C/c2cccnc2)C1 [Pymetrozine, pymetrozine]
- Average Control % ([9]; 0 + 400 ppm (second compound alone)): 50%

Compound: COC(=O)N(OC)c1ccccc1COc1ccn(-c2ccc(Cl)cc2)n1 [Pyraclostrobin, methyl N-{2-[1-(4-chlorophenyl)-1H-pyrazol-3-yloxymethyl]phenyl}(N-methoxy)carbamate]
- Observed efficacy % ([8]; 0.004 ppm): 46%

Compound: CCOC(=O)OC1=C(c2cc(C)ccc2C)C(=O)N[C@]12CC[C@@H](OC)CC2 [Spirotetramat, spirotetramat]
- Average Control % ([1]; 0 + 3.2 ppm (second compound alone)): 0%
- Average Control % ([1]; 0 + 16 ppm (second compound alone)): 0%

Compound: CC(c1ccc(C(F)(F)F)nc1)S(C)(=O)=NC#N (stereo not shown) [Sulfoxaflor, sulfoxaflor]
- Average Control % ([1]; 0 + 0.0064 ppm (second compound alone)): 0%

Compound: CC(C)(C)C(O)(CCc1ccc(Cl)cc1)Cn1cncn1 (stereo not shown) [Tebuconazole, 1-(4-chlorophenyl)-4,4-dimethyl-3-[1,2,4]triazol-1-ylmethylpentan-3-ol]
- Observed efficacy % ([8]; 0.25 ppm): 57%

Compound: CN1COCN(Cc2cnc(Cl)s2)/C1=N\[N+](=O)[O-] [Thiamethoxam, thiamethoxam]
- Average Control % [2, 12]: 25%
- Average Control % [4, 10]: 25%

Compound: CON=C(C(=O)OC)c1ccccc1CON=C(C)c1cccc(C(F)(F)F)c1 [Trifloxystrobin, methyl (E)-methoxyimino-{(E)-α-[1-(α,α,α-trifluoro-mtolyl)ethylideneaminooxy]-o-tolyl}acetate]
- Observed efficacy % ([8]; 0.016 ppm): 71%

Compound: CC1(C)C(C=C(Cl)Cl)C1C(=O)OC(C#N)c1cccc(Oc2ccccc2)c1 (stereo not drawn) [α-cypermethrin, alpha-cypermethrin]
- Average Control % [2, 11]: 25%
- Average Control % [2, 12]: 0%
- Average Control % [3, 11]: 25%

Compound: abamectin
- Average Control % [2, 17]: 25%
